Measured values: patent publication US20260232767A1, “INTERLEUKIN-23 RECEPTOR ANTAGONIST PEPTIDES FOR USE IN THE TREATMENT OF PSORIASIS” (Janssen Pharmaceutica NV, priority 2023, published 2026)

Test system: subjects with moderate-to-severe plaque psoriasis
Test: Safety, adverse events, Example 2 through Week 56
Format: in vivo, human
Text: The LTE safety analysis was based on randomized participants in Example who entered the present long-term extension study and received at least one dose of study intervention (including a partial dose) during the study period.

[1] = 100 mg QD, Week 16 through Week 56
[2] = 100 mg QD, LTE Safety analysis set

CC(=O)NCCCC[C@@H]1NC(=O)[C@H](Cc2c[nH]c3c(C)cccc23)NC(=O)[C@H]([C@@H](C)O)NC(=O)[C@H](CC(N)=O)NC(=O)[C@@H](NC(C)=O)C(C)(C)SSC(C)(C)[C@@H](C(=O)N[C@@H](Cc2ccc(OCCN)cc2)C(=O)N[C@@H](Cc2ccc3ccccc3c2)C(=O)NC2(C(=O)N[C@@H](CCC(=O)O)C(=O)N[C@@H](CC(N)=O)C(=O)N[C@@H](Cc3cccnc3)C(=O)N(C)CC(N)=O)CCOCC2)NC1=O [IL-23 receptor antagonist peptide, Ac-[Pen]*-N-T-[W(7-Me)]-[Lys(Ac)]-[Pen]*-Phe[4-(2-aminoethoxy)]-[2-Nal]-[THP]-E-N-[3-Pal]-Sarc-NH2 (*[Pen]-[Pen]* formdisulfidebond)]
3: Skin and subcutaneous tissue disorders: number of subjects (100 mg BID, through Week 56)
(2.5%): Subjects with treatment-emergent AE: Cholelithiasis (%) [1] | Subjects with treatment-emergent AE: Ear and labyrinth disorders (%) [1] | Subjects with treatment-emergent AE: Hepatobiliary disorders (%) [1] | Subjects with treatment-emergent AE: Vertigo (%) [1]
(4.8%): Vascular disorders: % of subjects (100 mg BID, through Week 56)
5: Subjects with treatment-emergent AE: Nasopharyngitis (100 mg BID, through Week 56)
1: Rhinorrhoea: number of subjects (100 mg BID, through Week 56) | Seasonal allergy: number of subjects (100 mg BID, through Week 56) | Skin papilloma: number of subjects (100 mg BID, through Week 56) | Thrombocytosis: number of subjects (100 mg BID, through Week 56) | Tooth fracture: number of subjects (100 mg BID, through Week 56) | Type 2 diabetes mellitus: number of subjects (100 mg BID, through Week 56) | Urinary tract disorder: number of subjects (100 mg BID, through Week 56) | Uterine leiomyoma: number of subjects (100 mg BID, through Week 56) | Number of subjects with treatment-emergent AE: Cholelithiasis [1] | Number of subjects with treatment-emergent AE: Ear and labyrinth disorders [1] | Number of subjects with treatment-emergent AE: Hepatobiliary disorders [1] | Number of subjects with treatment-emergent AE: Vertigo [1]
2: Vascular disorders: number of subjects (100 mg BID, through Week 56)
7: Subjects with treatment-emergent AE: Gastrointestinal disorders (100 mg BID, through Week 56)
0: Skin laceration: number of subjects (100 mg BID, through Week 56) | Social circumstances: number of subjects (100 mg BID, through Week 56) | Steatohepatitis: number of subjects (100 mg BID, through Week 56) | Subjects with AE leading to discontinuation: Abdominal pain (100 mg BID, through Week 56) | Subjects with AE leading to discontinuation: Alanine aminotransferase increased (100 mg BID, through Week 56) | Subjects with AE leading to discontinuation: Aspartate aminotransferase increased (100 mg BID, through Week 56) | Subjects with AE leading to discontinuation: Asthenia (100 mg BID, through Week 56) | Subjects with AE leading to discontinuation: Chills (100 mg BID, through Week 56) | Subjects with AE leading to discontinuation: Ear and labyrinth disorders (100 mg BID, through Week 56) | Subjects with AE leading to discontinuation: Gamma-glutamyltransferase increased (100 mg BID, through Week 56) | Subjects with AE leading to discontinuation: General disorders and administration site conditions (100 mg BID, through Week 56) | Subjects with AE leading to discontinuation: Headache (100 mg BID, through Week 56) | Subjects with AE leading to discontinuation: Insomnia (100 mg BID, through Week 56) | Subjects with AE leading to discontinuation: Investigations (100 mg BID, through Week 56) | Subjects with AE leading to discontinuation: Nausea (100 mg BID, through Week 56) | Subjects with AE leading to discontinuation: Nervous system disorders (100 mg BID, through Week 56) | Subjects with AE leading to discontinuation: Proctalgia (100 mg BID, through Week 56) | Subjects with AE leading to discontinuation: Psoriasis (100 mg BID, through Week 56) | Subjects with AE leading to discontinuation: Psychiatric disorders (100 mg BID, through Week 56) | Subjects with AE leading to discontinuation: Skin and subcutaneous tissue disorders (100 mg BID, through Week 56) | Subjects with AE leading to discontinuation: Suicide attempt (100 mg BID, through Week 56) | Subjects with AE leading to discontinuation: Transaminases increased (100 mg BID, through Week 56) | Subjects with AE leading to discontinuation: Vertigo (100 mg BID, through Week 56) | Subjects with AE leading to discontinuation: Vomiting (100 mg BID, through Week 56) | Subjects with AE leading to discontinuation: Weight increased (100 mg BID, through Week 56) | Subjects with treatment-emergent AE: Bronchitis (100 mg BID, through Week 56) | Subjects with treatment-emergent serious AE: COVID-19 (100 mg BID, through Week 56) | Subjects with treatment-emergent serious AE: Cardiac disorders (100 mg BID, through Week 56) | Subjects with treatment-emergent serious AE: Cerebrovascular accident (100 mg BID, through Week 56) | Subjects with treatment-emergent serious AE: Coronary artery disease (100 mg BID, through Week 56) | Subjects with treatment-emergent serious AE: Diverticulitis (100 mg BID, through Week 56) | Subjects with treatment-emergent serious AE: Foot deformity (100 mg BID, through Week 56) | Subjects with treatment-emergent serious AE: General disorders and administration site conditions (100 mg BID, through Week 56) | Subjects with treatment-emergent serious AE: Infected cyst (100 mg BID, through Week 56) | Subjects with treatment-emergent serious AE: Infections and infestations (100 mg BID, through Week 56) | Subjects with treatment-emergent serious AE: Injury, poisoning and procedural complications (100 mg BID, through Week 56) | Subjects with treatment-emergent serious AE: Intervertebral disc protrusion (100 mg BID, through Week 56) | Subjects with treatment-emergent serious AE: Ligament injury (100 mg BID, through Week 56) | Subjects with treatment-emergent serious AE: Musculoskeletal and connective tissue disorders (100 mg BID, through Week 56) | Subjects with treatment-emergent serious AE: Nervous system disorders (100 mg BID, through Week 56) | Subjects with treatment-emergent serious AE: Non-cardiac chest pain (100 mg BID, through Week 56) | Subjects with treatment-emergent serious AE: Psychiatric disorders (100 mg BID, through Week 56) | Subjects with treatment-emergent serious AE: Respiratory, thoracic and mediastinal disorders (100 mg BID, through Week 56) | Subjects with treatment-emergent serious AE: Suicide attempt (100 mg BID, through Week 56) | Subjects with treatment-emergent serious AE: Tonsillar hypertrophy (100 mg BID, through Week 56) | Subjects with treatment-emergent serious AE: Ventricular dysfunction (100 mg BID, through Week 56) | Suicide attempt: number of subjects (100 mg BID, through Week 56) | Sunburn: number of subjects (100 mg BID, through Week 56) | Thrombocytopenia: number of subjects (100 mg BID, through Week 56) | Tonsillar hypertrophy: number of subjects (100 mg BID, through Week 56) | Ventricular dysfunction: number of subjects (100 mg BID, through Week 56) | Vertigo: number of subjects (100 mg BID, through Week 56) | Vitamin D deficiency: number of subjects (100 mg BID, through Week 56) | Number of subjects with treatment-emergent AE: Endocrine disorders [1] | Number of subjects with treatment-emergent AE: Eye disorders [1] | Number of subjects with treatment-emergent AE: Eyelid skin dryness [1] | Number of subjects with treatment-emergent AE: Goiter [1] | Number of subjects with treatment-emergent AE: Hypertransaminasemia [1] | Number of subjects with treatment-emergent AE: Immune system disorders [1] | Number of subjects with treatment-emergent AE: Insomnia [1] | Number of subjects with treatment-emergent AE: Ocular cyst [1] | Number of subjects with treatment-emergent AE: Psychiatric disorders [1] | Number of subjects with treatment-emergent AE: Retinal vein occlusion [1] | Number of subjects with treatment-emergent AE: Seasonal allergy [1] | Subjects with adverse event: Alanine aminotransferase increased [2] | Subjects with adverse event: Aspartate aminotransferase increased [2] | Subjects with adverse event: Bronchitis [2] | Subjects with adverse event: Meniscus injury [2] | Subjects with adverse event: Sinusitis [2] | Subjects with adverse event: Urinary tract infection [2] | Subjects with serious adverse event: Cerebrovascular accident [2] | Subjects with serious adverse event: Coronary artery disease [2] | Subjects with serious adverse event: Foot deformity [2] | Subjects with serious adverse event: Ligament injury [2] | Subjects with serious adverse event: Non-cardiac chest pain [2] | Subjects with serious adverse event: Tonsillar hypertrophy [2] | Subjects with serious adverse event: Uterine leiomyoma [2] | Subjects with serious adverse event: Ventricular dysfunction [2] | Subjects with AE leading to discontinuation: Alanine aminotransferase increased (100 mg QD, Week 16-56) | Subjects with AE leading to discontinuation: Aspartate aminotransferase increased (100 mg QD, Week 16-56) | Subjects with AE leading to discontinuation: Asthenia (100 mg QD, Week 16-56) | Subjects with AE leading to discontinuation: Gamma-glutamyltransferase increased (100 mg QD, Week 16-56) | Subjects with AE leading to discontinuation: Insomnia (100 mg QD, Week 16-56) | Subjects with AE leading to discontinuation: Investigations (100 mg QD, Week 16-56) | Subjects with AE leading to discontinuation: Proctalgia (100 mg QD, Week 16-56) | Subjects with AE leading to discontinuation: Psoriasis (100 mg QD, Week 16-56) | Subjects with AE leading to discontinuation: Psychiatric disorders (100 mg QD, Week 16-56) | Subjects with AE leading to discontinuation: Skin and subcutaneous tissue disorders (100 mg QD, Week 16-56) | Subjects with COVID-19 associated AE of interest: SARS-CoV-2 test positive (100 mg QD, Week 16-56) | Subjects with treatment-emergent AE: Alanine aminotransferase increased (100 mg QD, Week 16-56) | Subjects with treatment-emergent AE: Aspartate aminotransferase increased (100 mg QD, Week 16-56)
(7.1%): Skin and subcutaneous tissue disorders: % of subjects (100 mg BID, through Week 56)
(2.4%): Rhinorrhoea: % of subjects (100 mg BID, through Week 56) | Seasonal allergy: % of subjects (100 mg BID, through Week 56) | Skin papilloma: % of subjects (100 mg BID, through Week 56) | Thrombocytosis: % of subjects (100 mg BID, through Week 56) | Tooth fracture: % of subjects (100 mg BID, through Week 56) | Type 2 diabetes mellitus: % of subjects (100 mg BID, through Week 56) | Urinary tract disorder: % of subjects (100 mg BID, through Week 56) | Uterine leiomyoma: % of subjects (100 mg BID, through Week 56)
